In PubChem BioAssay (NCI):
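Cells were grown in 96-well plates and exposed to each compound for 48 hours at five concentrations; endpoints were interpolated linearly between bracketing concentrations, or set to the highest concentration if not reached. GI50 = concentration required for 50% inhibition of growth. Definition used: TGI = concentration required for complete inhibition of growth.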

Experiments:
Test in all cases: DTP human tumour cell line panel, 48 h
CCRF-CEM leukemia = system: CCRF-CEM leukemia
HOP-92 NSCLC = system: HOP-92 NSCLC
KM12 colon = system: KM12 colon
MALME-3M melanoma = system: MALME-3M melanoma
MOLT-4 leukemia = system: MOLT-4 leukemia
SK-MEL-28 melanoma = system: SK-MEL-28 melanoma
SK-OV-3 ovarian = system: SK-OV-3 ovarian
SW-620 colon = system: SW-620 colon
TK-10 renal = system: TK-10 renal
DU-145 prostate = system: DU-145 prostate

| SMILES | TGI (CCRF-CEM leukemia) [µM] | TGI (HOP-92 NSCLC) [µM] | TGI (KM12 colon) [µM] | TGI (MALME-3M melanoma) [µM] | TGI (MOLT-4 leukemia) [µM] | TGI (SK-MEL-28 melanoma) [µM] | TGI (SK-OV-3 ovarian) [µM] | TGI (SW-620 colon) [µM] | TGI (TK-10 renal) [µM] | TGI (DU-145 prostate) [µM] | GI50 (CCRF-CEM leukemia) [µM] | GI50 (DU-145 prostate) [µM] | GI50 (HOP-92 NSCLC) [µM] | GI50 (KM12 colon) [µM] | GI50 (MALME-3M melanoma) [nM] | GI50 (MOLT-4 leukemia) [nM] | GI50 (SK-MEL-28 melanoma) [nM] | GI50 (SK-OV-3 ovarian) [µM] | GI50 (SW-620 colon) [nM] | GI50 (TK-10 renal) [µM] |
| --- | --- | --- | --- | --- | --- | --- | --- | --- | --- | --- | --- | --- | --- | --- | --- | --- | --- | --- | --- | --- |
| OC1OCC(COc2cc(Cl)c(Cl)cc2Cl)OC1O (centres undefined) | 89.6 | 94.3 | > 100 | > 100 | > 100 | > 100 | > 100 | 47.7 | > 100 |  |  |  |  |  |  |  |  |  |  |  |
| COc1cc(/C=C2\[C@@H]3NC(Cc4c(OC)c(C)c(OC)c(OC)c43)C(=O)N2Cc2ccccc2)c(OC)c(C)c1OC | > 100 | 69.1 | > 100 | 91.4 | 94 | > 100 | > 100 | > 100 | > 100 |  |  |  |  |  |  |  |  |  |  |  |
| C[C@]12CC[C@H]3[C@@H](CC[C@]4(O)C[C@@H](O)CC[C@]34C=O)[C@@]1(O)CC[C@@H]2C1=CC(=O)OC1 | > 100 |  | 6.66 | 2.03 | 0.907 | 4.84 | 2.79 | 2.79 | 1.63 | 0.863 |  |  |  |  |  |  |  |  |  |  |
| CC1C(c2ccccc2)N(C)C(c2ccccc2)C(C)C1(O)c1ccccc1 (centres undefined) | > 100 | > 100 | > 100 | > 100 | > 100 | > 100 | > 100 | > 100 | > 100 |  |  |  |  |  |  |  |  |  |  |  |
| O=[N+]([O-])c1ccc2c(c1)C(N1CCN(CCO)CC1)Cc1ccc(F)cc1S2 (centres undefined) | 16.1 |  | 21.4 |  | 9.21 | 6.06 | 31 | 19.3 | 27.8 | 29 |  |  |  |  |  |  |  |  |  |  |
| C[C@]12CCC(=O)C=C1C[C@@H](O)[C@@H]1[C@@H]2CC[C@@]2(C)[C@H]1CC[C@]2(C)O | > 100 | > 100 | > 100 | > 100 |  | > 100 | > 100 | > 100 | > 100 | > 100 |  |  |  |  |  |  |  |  |  |  |
| CCOC(=O)N1CCC(N=C2CSc3nnc(-c4cc(C(F)(F)F)cc(C(F)(F)F)c4)n3N2)CC1 | 5.28 | 5 | 3.95 | 3.31 | 5.31 | 3.75 | 8.71 | 4.27 |  | 6.17 | 2.01 | 2.39 | 1.97 | 2.04 | 1680 | 2570 | 1870 | 3.21 | 2090 |  |
| NS(=O)(=O)c1ccc(-n2nc3c(c2-c2cccs2)Cc2ccccc2-3)cc1 | 28.7 | 22.7 | 32.2 |  | 3.97 | 58.4 | > 100 | 23.4 | 38.7 | 24 | 4.24 | 10.6 | 5.56 | 13.5 |  | 1430 | 25800 | 37.7 | 10200 | 12.2 |
| O=C(NC1CCC[C@H]1OC(=O)c1ccccc1)c1ccccc1 (some centres undefined) | > 100 | > 100 | > 100 | > 100 | > 100 | > 100 | > 100 | > 100 | > 100 |  |  |  |  |  |  |  |  |  |  |  |
| CC1(c2ccc(F)cc2)C2C(=O)NC(=O)C1C(=O)NC2=O (centres undefined) | > 100 | > 100 | > 100 | > 100 | > 100 | > 100 | > 100 | > 100 | > 100 |  |  |  |  |  |  |  |  |  |  |  |
| C=CCC1(CN(C)C)CC/C(=C\c2ccc3c(c2)OCO3)C1=O (centres undefined) | 81.4 | > 100 | > 100 | > 100 | 72.8 | > 100 |  | > 100 | > 100 |  |  |  |  |  |  |  |  |  |  |  |
| COc1ccc2c3ccnc(C(F)(F)F)c3n(CCCCN)c2c1 | 47.8 |  | 17.6 | 5.36 | 12.8 | 3.82 | 25.3 | 14.6 | 19.3 | 21.2 | 9.02 | 9.04 |  | 5.1 | 2020 | 3930 | 1920 | 10.5 | 3280 | 7.06 |
| Nc1nc2cc(Cl)ccc2n1N | > 100 |  | > 100 | > 100 | > 100 | > 100 | > 100 | > 100 | > 100 | > 100 |  |  |  |  |  |  |  |  |  |  |
| CCC(O)CCCCCCCCCCCCCCC(=O)O (centres undefined) | > 100 | > 100 | > 100 | > 100 | > 100 | > 100 | > 100 | > 100 | > 100 |  |  |  |  |  |  |  |  |  |  |  |
| Cc1ccc(/C=C2\CCCCC2=O)cc1 | 88.8 |  |  |  | 45.4 | > 100 | > 100 | > 100 | > 100 |  |  |  |  |  |  |  |  |  |  |  |
| COc1ccc(N=NC2=C(O)CCC2=O)cc1 | > 100 | > 100 | > 100 | > 100 | > 100 | > 100 | > 100 | > 100 | > 100 |  |  |  |  |  |  |  |  |  |  |  |
| CC(C)N1CC2CC(CN(C(=O)c3ccc(Cl)cc3)C2)C1 | > 100 | > 100 | > 100 | > 100 | > 100 | > 100 | > 100 | > 100 | > 100 |  |  |  |  |  |  |  |  |  |  |  |
| CCCCCCCCCCCCCCNCC(OC)OC | 36.4 | 23.9 | 26.7 | 35.3 |  | 30.4 | 33.1 | 33.2 | 32.9 |  |  |  |  |  |  |  |  |  |  |  |
| CCCCCCC(=O)NC1=C(N2CC2)C(=O)C(NC(=O)CCCCCC)=C(N2CC2)C1=O | > 100 |  | > 100 | 4.98 |  | > 100 | > 100 | > 100 | 72.9 | > 100 | 4.32 | 1.13 |  | 3.12 | 1600 |  | > 100000 | 13 | 2250 | 20.2 |
| O=C(Nc1ccc(Br)c2ccccc12)c1ccc2ccccc2c1O | > 100 |  | 13.7 | 9.3 | > 100 | 48.1 | 18.6 | 14.8 | 30.3 | 85.4 |  |  |  |  |  |  |  |  |  |  |
| O=C1c2ccccc2C(=O)N1CC#CCO | > 100 |  | > 100 |  | > 100 | > 100 | > 100 | > 100 | > 100 |  |  |  |  |  |  |  |  |  |  |  |
| Cc1cc(-c2ccccc2)nc(Nc2cc3ccccc3[nH]2)n1 | > 100 | > 100 | > 100 | > 100 | > 100 | > 100 | > 100 | > 100 | > 100 |  |  |  |  |  |  |  |  |  |  |  |
